Assay results taken from patent publication US9193731B2, “Antimicrobial compounds and methods of making and using the same” (Melinta Therapeutics, Inc., priority 2009, dated 2015).

The compounds below were run on Escherichia coli strain ATCC25922 (assay: standard microdilution assay to determine minimum inhibitory concentrations (MICs)). Details: Escherichia coli strain ATCC25922, microdilution.
Format: cell-based
Outline: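 E. coli strain ATCC25922 tested per CLSI microdilution methodology (about 100 microliters per well) to find minimum inhibitory concentrations. Activity scored categorically at a 16 micrograms/ml threshold.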

| Compound | E. coli ATCC25922 MIC |
| --- | --- |
| NCc1ccc(-n2cc3cc(-c4ccc(S(=O)(=O)N(CC5COc6ccccc6O5)C5CCNCC5)cc4)[nH]c3nc2=O)cc1 (stereo not shown) [Compound 985] | − (a “−” indicates that the compound has an MIC value greater than 16 micrograms/ml) |
| N=C(N)NCCCNCc1ccc(-n2cc3cc(-c4cc(CN5CCS(=O)(=O)CC5)cc(N5CCNCC5)c4)[nH]c3nc2=O)cc1 [Compound 915] | + (a “+” indicates that the compound has an MIC value of 16 micrograms/ml or less) |
| N=C(N)NCCCNC(=O)c1ccc(-n2cc3cc(CCNC4CNC4)[nH]c3nc2=O)cc1 [Compound 1408] | − (a “−” indicates that the compound has an MIC value greater than 16 micrograms/ml) |
| N=C(N)NCCCNCc1ccc(-n2cc3cc(-c4cc(CCCCN)cc(S(=O)(=O)C(F)(F)F)c4)[nH]c3nc2=O)cc1 [Compound 2055a] | + (a “+” indicates that the compound has an MIC value of 16 micrograms/ml or less) |
| N=C(N)NCCCN1CC=C(n2cc3cc(-c4ccc(S(=O)(=O)N(Cc5ccc(Cl)c(Cl)c5)C5CCNCC5)cc4)[nH]c3nc2=O)CC1 [Compound 966] | + (a “+” indicates that the compound has an MIC value of 16 micrograms/ml or less) |
| N=C(N)NCCCNCc1ccc(-n2cc3cc(C4CCN(CCCCN)C4)[nH]c3nc2=O)cc1 (stereo not shown) [Compound 1437] | + (a “+” indicates that the compound has an MIC value of 16 micrograms/ml or less) |
| COc1ccc(CN(C2CCNCC2)S(=O)(=O)c2ccc(-c3cc4cn(-c5ccc(CNCCCNC(=N)N)cc5)c(=O)nc4[nH]3)cc2)cc1[N+](=O)[O-] [Compound 787] | + (a “+” indicates that the compound has an MIC value of 16 micrograms/ml or less) |
| N=C(N)NCCCNCc1ccc(-n2cc3cc(-c4cc(OCCCN)cc(N5CCNCC5)c4)[nH]c3nc2=O)cc1 [Compound 2010a] | + (a “+” indicates that the compound has an MIC value of 16 micrograms/ml or less) |
| N=C(N)NCCCNCc1ccc(-n2cc3cc(-c4ccc(S(=O)(=O)N(CC5CC5c5ccncc5)C5CCNCC5)cc4)[nH]c3nc2=O)cc1 (stereo not shown) [Compound 866] | + (a “+” indicates that the compound has an MIC value of 16 micrograms/ml or less) |
| N=C(N)NCCCNCc1ccc(-n2cc3cc(-c4ccc(S(=O)(=O)N(CC5CCOCC5)C5CCNCC5)cc4)[nH]c3nc2=O)cc1 [Compound 758] | + (a “+” indicates that the compound has an MIC value of 16 micrograms/ml or less) |
| N=C(N)NCCCNCc1ccc(-n2cc3cc(-c4cccc(S(=O)(=O)N(Cc5ccc(Cl)c(Cl)c5)C5CCNCC5)c4)[nH]c3nc2=O)cc1 [Compound 979] | + (a “+” indicates that the compound has an MIC value of 16 micrograms/ml or less) |
| CN(CCCO)C(=O)c1cc(-c2cc3cn(-c4ccc(CNCCCNC(=N)N)cc4)c(=O)nc3[nH]2)cc(N2CCNCC2)c1 [Compound 940] | + (a “+” indicates that the compound has an MIC value of 16 micrograms/ml or less) |
| CC(C)(C)NCC(=O)Nc1ccc(-c2cc3cn(-c4ccc(CNCCCN=C(N)N)cc4)c(=O)nc3[nH]2)cc1 [Compound 1218] | + (a “+” indicates that the compound has an MIC value of 16 micrograms/ml or less) |
| NCCCNCc1ccc(-n2cc3cc(-c4cc(C(=O)N5CCN(CCO)CC5)cc(N5CCNCC5)c4)[nH]c3nc2=O)cc1 [Compound 860] | − (a “−” indicates that the compound has an MIC value greater than 16 micrograms/ml) |
| CN(Cc1ccccc1)C(=O)c1cc(-c2cc3cn(-c4ccc(CNCCCNC(=N)N)cc4)c(=O)nc3[nH]2)cc(N2CCNCC2)c1 [Compound 989] | + (a “+” indicates that the compound has an MIC value of 16 micrograms/ml or less) |
| N=C(N)NCCCNCc1ccc(-n2cc3cc(-c4ccc(Cl)c(CCCCN)c4)[nH]c3nc2=O)cc1 [Compound 2089a] | + (a “+” indicates that the compound has an MIC value of 16 micrograms/ml or less) |
| CC1CN(C(=O)c2ccc(-c3cn4cc(-c5ccc(CNCCCN)cc5)c(=O)nc4[nH]3)cc2)CCN1 (stereo not shown) [Compound 821] | + (a “+” indicates that the compound has an MIC value of 16 micrograms/ml or less) |
| N=C(N)NCCCNCc1ccc(-n2cc3cc(-c4cc(CO)cc(CCCCN)c4)[nH]c3nc2=O)cc1 [Compound 2065a] | + (a “+” indicates that the compound has an MIC value of 16 micrograms/ml or less) |
| N=C(N)NCCCOCc1ccc(-c2cn3cc(-c4ccc(C(=O)NC5CCNCC5)cc4)[nH]c3nc2=O)cc1 [Compound 928] | + (a “+” indicates that the compound has an MIC value of 16 micrograms/ml or less) |
| CC(=O)NCc1ccc(-n2cc3cc(-c4cccc(CCCN)c4)[nH]c3nc2=O)cc1 [Compound 2063a] | − (a “−” indicates that the compound has an MIC value greater than 16 micrograms/ml) |

Same assay, conditions: Escherichia coli, ATCC25922, Escherichia coli strain ATCC25922, microdilution; read-out: E. coli ATCC25922 MIC

| Compound | MIC [µg/mL] |
| --- | --- |
| N=C(N)NCCCCN1CCC(n2cc3c(nc2=O)[nH]c2ccccc23)C1 (stereo not shown) [Compound 562, N-{4-[3-(2-oxo-2,9-dihydro-1,3,9-triaza-fluoren-3-yl)-pyrrolidine-1-yl]-butyl}-guanidine] | > 16 |
| NCc1ccc(-n2cc3cc(-c4cccc(OCCF)c4)[nH]c3nc2=O)cc1 [Compound 1168] | > 16 |
| NCc1ccc(-n2cc3cc(-c4cccc(S(=O)(=O)N(CCc5cccc([N+](=O)[O-])c5)C5CCNCC5)c4)[nH]c3nc2=O)cc1 [Compound 1184] | > 16 |
| O=c1nc2[nH]c(-c3ccc(F)cc3)cc2cn1C1CCNC1 (stereo not shown) [Compound 561] | > 16 |
| N=C(N)NCCCNCc1ccc(-n2cc3cc(-c4ccc(S(=O)(=O)N(C5CCNCC5)C5CCOCC5)cc4)[nH]c3nc2=O)cc1 [Compound 727] | < 16 |
| NCCCN1CCC(c2cn3cc(-c4ccc(F)cc4)[nH]c3nc2=O)CC1 [Compound 567] | > 16 |
| NC1CCN(Cc2ccc(-n3cc4cc(-c5ccc(S(=O)(=O)NC6CCNCC6)cc5F)[nH]c4nc3=O)cc2)CC1 [Compound 263] | < 16 |
| NCc1ccc(-n2cc3cc(-c4ccc(S(=O)(=O)NC5CCNCC5)c(Cl)c4)[nH]c3nc2=O)cc1F [Compound 272] | > 16 |
| NCCCCN1CC(n2cc3c(nc2=O)[nH]c2ccccc23)C1 [Compound 590] | > 16 |
| NCCCNCc1ccc(-n2cc3cc(-c4ccc(S(=O)(=O)N(C5CCNCC5)C5CCOCC5)cc4)[nH]c3nc2=O)cc1 [Compound 726] | < 16 |
| NCCCNCc1ccc(-n2cc3cc(-c4ccc(S(=O)(=O)N(CC5CCOCC5)C5CCCNC5)cc4)[nH]c3nc2=O)cc1 (stereo not shown) [Compound 830] | > 16 |
| CSCCN(C1CCNCC1)S(=O)(=O)c1ccc(-c2cc3cn(-c4ccc(CN(CCCN)CCCN)cc4)c(=O)nc3[nH]2)cc1 [Compound 232] | < 16 |
| N=C(N)NCCCNCc1ccc(-n2cc3cc([C@@H]4C[C@@H](N)[C@@H](CO)O4)[nH]c3nc2=O)cc1 [Compound 1267] | < 16 |
| N=C(N)NCCCNCc1ccc(-n2cc3cc(-c4cc(C(=O)N5CCN(c6ccc(F)cc6)CC5)cc(N5CCNCC5)c4)[nH]c3nc2=O)cc1 [Compound 755] | < 16 |
| O=C(NC1CCNCC1)c1ccc(-c2cc3cn(-c4ccc(CNCCCF)c(F)c4)c(=O)nc3[nH]2)c(F)c1 [Compound 280] | > 16 |
| N=C(N)CCCN1CCCC(c2cc3cn(-c4ccc(CNCCCNC(=N)N)cc4)c(=O)nc3[nH]2)C1 (stereo not shown) [Compound 2020a] | < 16 |
| NCCCNCc1ccc(-c2cn3cc(-c4ccc(C(=O)NC56CC7CC(CC(C7)C5)C6)cc4)[nH]c3nc2=O)cc1 [Compound 717] | > 16 |
